Source: patent publication US20110015119A1, “NOVEL SEMI-SYNTHETIC GLYCOPEPTIDES AS ANTIBACTERIAL AGENTS” (LEAD THERAPEUTICS, INC., priority 2009, published 2011)
In brackets after ≈: the same amount, converted by molar mass.

Tests used:
Type in all cases: cell-based
[1] = tested on: Enterococcus faecium 752 (VRE, Van A); assay: MIC by broth microdilution, EFcm 752; details: Enterococcus faecium, VRE, read-out: MIC E FCM 752, Enterococcus faecium 752 (VRE, Van A); class symbols
Method in brief: (§1)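 MHB microdilution, CLSI method; clinical isolates, glycopeptide-sensitive or -resistant; robotic serial dilutions.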

[2] = tested on: Streptococcus pyogenes 712; assay: MIC by broth microdilution, SPY 712; details: Streptococcus pyogenes, 712, read-out: MIC S PYO 712
Method in brief: as §1

[3] = tested on: Staphylococcus aureus 2012 (VISA); assay: MIC by broth microdilution, SA 2012; details: Staphylococcus aureus, VISA, read-out: MIC SA 2012, Staphylococcus aureus 2012 (VISA); class symbols
Method in brief: as §1

[4] = tested on: Staphylococcus aureus 100 (ATCC 29213); assay: MIC by broth microdilution, SA 100; details: Staphylococcus aureus, ATCC29213, read-out: MIC SA 100
Method in brief: as §1

[5] = tested on: Staphylococcus aureus 757 (MRSA); assay: MIC by broth microdilution, SA 757; details: Staphylococcus aureus, MRSA, read-out: MIC SA 757
Method in brief: as §1

[6] = tested on: Staphylococcus epidermidis 835; assay: MIC by broth microdilution, SE 835; details: Staphylococcus epidermidis, 835, read-out: MIC SE 835
Method in brief: as §1

Enterococcus faecium 800 = assay: MIC by broth microdilution, EFcm 800; details: Enterococcus faecium, 800, read-out: MIC E FCM 800
Method in brief: as §1

[7] = tested on: Enterococcus faecalis 101 (ATCC 29212); assay: MIC by broth microdilution, EFc 101; details: Enterococcus faecalis, ATCC29212, read-out: MIC E FC 101, Enterococcus faecalis 101 (ATCC 29212); class symbols
Method in brief: as §1

[8] = tested on: Enterococcus faecalis 848 (VRE, Van A); assay: MIC by broth microdilution, EFc 848; details: Enterococcus faecalis, VRE, read-out: MIC E FC 848, Enterococcus faecalis 848 (VRE, Van A); class symbols
Method in brief: as §1

[9] = tested on: Streptococcus pneumoniae 1195 (ATCC 49619); assay: MIC by broth microdilution, SPNE 1195; details: Streptococcus pneumoniae, ATCC49619, read-out: MIC S PNE 1195
Method in brief: as §1

[10] = tested on: Staphylococcus epidermidis 831 (MRSE); assay: MIC by broth microdilution, SE 831; details: Staphylococcus epidermidis, MRSE, read-out: MIC SE 831
Method in brief: as §1

| Compound | MIC [1] | MIC [2] | MIC [3] | MIC [4] | MIC [5] | MIC [6] | MIC (Enterococcus faecium 800) | MIC [7] | MIC [8] | MIC [9] | MIC [10] |
| --- | --- | --- | --- | --- | --- | --- | --- | --- | --- | --- | --- |
| CCCCCCCC(C)NC(=O)Oc1cc(O)c2c(c1)[C@@H](C(=O)NC1C3CC4CC(C3)CC1C4)NC(=O)[C@H]1NC(=O)[C@H](NC(=O)[C@@H]3NC(=O)[C@H](CC(N)=O)NC(=O)[C@H](NC(=O)[C@@H](CC(C)C)NC)[C@H](O)c4ccc(c(Cl)c4)Oc4cc3cc(c4O[C@@H]3O[C@H](CO)[C@@H](O)[C@H](O)[C@H]3O[C@H]3C[C@](C)(N)[C@H](O)[C@H](C)O3)Oc3ccc(cc3Cl)[C@H]1O)c1ccc(O)c-2c1 (stereo partly shown) [Compound 312] | 0.5 to 1 µg/mL (≈ 0.285 to 0.571 µM) | 0.01 to 0.5 µg/mL (≈ 0.00571 to 0.285 µM) | > 16 µg/mL | 0.01 to 0.5 µg/mL (≈ 0.00571 to 0.285 µM) | 0.01 to 0.5 µg/mL (≈ 0.00571 to 0.285 µM) | 0.5 to 1 µg/mL (≈ 0.285 to 0.571 µM) | 0.01 to 0.5 µg/mL (≈ 0.00571 to 0.285 µM) | 0.01 to 0.5 µg/mL (≈ 0.00571 to 0.285 µM) | > 16 µg/mL | 0.01 to 0.5 µg/mL (≈ 0.00571 to 0.285 µM) | 0.01 to 0.5 µg/mL (≈ 0.00571 to 0.285 µM) |
| CCCCCOc1ccc(S(=O)(=O)NCCCCCCNC(=O)Oc2cc(O)c3c(c2)[C@@H](C(=O)NC2C4CC5CC(C4)CC2C5)NC(=O)[C@H]2NC(=O)[C@H](NC(=O)[C@@H]4NC(=O)[C@H](CC(N)=O)NC(=O)[C@H](NC(=O)[C@@H](CC(C)C)NC)[C@H](O)c5ccc(c(Cl)c5)Oc5cc4cc(c5O[C@@H]4O[C@H](CO)[C@@H](O)[C@H](O)[C@H]4O[C@H]4C[C@](C)(N)[C@H](O)[C@H](C)O4)Oc4ccc(cc4Cl)[C@H]2O)c2ccc(O)c-3c2)cc1 (stereo partly shown) [Compound 317] | 1 to 2 µg/mL (≈ 0.513 to 1.03 µM) | 0.01 to 0.5 µg/mL (≈ 0.00513 to 0.256 µM) | 8 to 16 µg/mL (≈ 4.1 to 8.2 µM) | 1 to 2 µg/mL (≈ 0.513 to 1.03 µM) | 0.5 to 1 µg/mL (≈ 0.256 to 0.513 µM) | 2 to 4 µg/mL (≈ 1.03 to 2.05 µM) | 0.01 to 0.5 µg/mL (≈ 0.00513 to 0.256 µM) | 1 to 2 µg/mL (≈ 0.513 to 1.03 µM) | 8 to 16 µg/mL (≈ 4.1 to 8.2 µM) | 0.01 to 0.5 µg/mL (≈ 0.00513 to 0.256 µM) | 1 to 2 µg/mL (≈ 0.513 to 1.03 µM) |
| CCOc1ccc(NC(=O)Oc2cc(O)c3c(c2)[C@@H](C(=O)NC2C4CC5CC(C4)CC2C5)NC(=O)[C@H]2NC(=O)[C@H](NC(=O)[C@@H]4NC(=O)[C@H](CC(N)=O)NC(=O)[C@H](NC(=O)[C@@H](CC(C)C)NC)[C@H](O)c5ccc(c(Cl)c5)Oc5cc4cc(c5O[C@@H]4O[C@H](CO)[C@@H](O)[C@H](O)[C@H]4O[C@H]4C[C@](C)(N)[C@H](O)[C@H](C)O4)Oc4ccc(cc4Cl)[C@H]2O)c2ccc(O)c-3c2)cc1 (stereo partly shown) [Compound 330] | > 16 µg/mL | 0.01 to 0.5 µg/mL (≈ 0.00573 to 0.286 µM) | 4 to 8 µg/mL (≈ 2.29 to 4.58 µM) | 0.5 to 1 µg/mL (≈ 0.286 to 0.573 µM) | 0.5 to 1 µg/mL (≈ 0.286 to 0.573 µM) | 1 to 2 µg/mL (≈ 0.573 to 1.15 µM) | 0.01 to 0.5 µg/mL (≈ 0.00573 to 0.286 µM) | 1 to 2 µg/mL (≈ 0.573 to 1.15 µM) | > 16 µg/mL | 0.01 to 0.5 µg/mL (≈ 0.00573 to 0.286 µM) | 1 to 2 µg/mL (≈ 0.573 to 1.15 µM) |
| CCCCc1ccc(NC(=O)Oc2cc(O)c3c(c2)[C@@H](C(=O)NC2C4CC5CC(C4)CC2C5)NC(=O)[C@H]2NC(=O)[C@H](NC(=O)[C@@H]4NC(=O)[C@H](CC(N)=O)NC(=O)[C@H](NC(=O)[C@@H](CC(C)C)NC)[C@H](O)c5ccc(c(Cl)c5)Oc5cc4cc(c5O[C@@H]4O[C@H](CO)[C@@H](O)[C@H](O)[C@H]4O[C@H]4C[C@](C)(N)[C@H](O)[C@H](C)O4)Oc4ccc(cc4Cl)[C@H]2O)c2ccc(O)c-3c2)cc1 (stereo partly shown) [Compound 331] | 2 to 4 µg/mL (≈ 1.14 to 2.28 µM) | 0.01 to 0.5 µg/mL (≈ 0.00569 to 0.284 µM) | 1 to 2 µg/mL (≈ 0.569 to 1.14 µM) | 0.01 to 0.5 µg/mL (≈ 0.00569 to 0.284 µM) | 0.01 to 0.5 µg/mL (≈ 0.00569 to 0.284 µM) | 0.5 to 1 µg/mL (≈ 0.284 to 0.569 µM) | 0.01 to 0.5 µg/mL (≈ 0.00569 to 0.284 µM) | 0.5 to 1 µg/mL (≈ 0.284 to 0.569 µM) | > 16 µg/mL | 0.01 to 0.5 µg/mL (≈ 0.00569 to 0.284 µM) | 0.01 to 0.5 µg/mL (≈ 0.00569 to 0.284 µM) |
| CCCCCCc1ccc(NC(=O)Oc2cc(O)c3c(c2)[C@@H](C(=O)NC2C4CC5CC(C4)CC2C5)NC(=O)[C@H]2NC(=O)[C@H](NC(=O)[C@@H]4NC(=O)[C@H](CC(N)=O)NC(=O)[C@H](NC(=O)[C@@H](CC(C)C)NC)[C@H](O)c5ccc(c(Cl)c5)Oc5cc4cc(c5O[C@@H]4O[C@H](CO)[C@@H](O)[C@H](O)[C@H]4O[C@H]4C[C@](C)(N)[C@H](O)[C@H](C)O4)Oc4ccc(cc4Cl)[C@H]2O)c2ccc(O)c-3c2)cc1 (stereo partly shown) [Compound 332] | 8 to 16 µg/mL (≈ 4.48 to 8.96 µM) | 0.01 to 0.5 µg/mL (≈ 0.0056 to 0.28 µM) | 4 to 8 µg/mL (≈ 2.24 to 4.48 µM) | 1 to 2 µg/mL (≈ 0.56 to 1.12 µM) | 1 to 2 µg/mL (≈ 0.56 to 1.12 µM) | 1 to 2 µg/mL (≈ 0.56 to 1.12 µM) | 0.5 to 1 µg/mL (≈ 0.28 to 0.56 µM) | 1 to 2 µg/mL (≈ 0.56 to 1.12 µM) | > 16 µg/mL | 0.01 to 0.5 µg/mL (≈ 0.0056 to 0.28 µM) | 0.5 to 1 µg/mL (≈ 0.28 to 0.56 µM) |
